In BindingDB's records for doi:10.1016/j.ejmech.2019.04.053 (China Pharmaceutical University, 2019):

Assay: Inhibition of human TRKA expressed in human TF1 cells by CellTiter-Glo Luminescent assay

**Q.** Which IC50 does the source give for `COCC[C@@H]1C[C@@H](NC(=O)Nc2c(C)c(-c3cnn(C)c3)nn2-c2ccccc2)[C@@H]2c3ccccc3C(F)(F)CN12` here?
**A.** 0.64 nM

**Q.** For `COCCN1C[C@@H](NC(=O)Nc2c(C)c(-c3cnn(C)c3)nn2-c2ccccc2)[C@@H]2c3ccccc3CC[C@H]21`, which IC50 is on record?
**A.** 0.59 nM

**Q.** Which IC50 does the source give for `COCC[C@@H]1C[C@@H](NC(=O)Nc2c(C)c(-c3cnn(C)c3)nn2-c2ccccc2)[C@H](c2cnc(Cl)c(F)c2)N1` here?
**A.** < 100 nM

**Q.** For `Cc1c(OCC2CCN(C)CC2)nn(-c2ccccc2)c1NC(=O)N[C@H]1CN(CC(F)(F)F)[C@@H]2COc3ccccc3[C@H]12`, which IC50 is on record?
**A.** 0.64 nM

**Q.** With `COCC[C@@H]1C[C@@H](NC(=O)Nc2c(C)c(-c3cnc4c(c3)c(N=S(C)(C)=O)nn4C)nn2-c2ccccc2)[C@H](c2ccc(F)c(F)c2)N1` as the compound, how does the IC50 read?
**A.** < 100 nM
